Legend:
gastric emptying = experiment: Test 1: gastric emptying enhancing activity (phenol red test meal); format: in vivo, Male Wistar rats; settings: po, 0.25 h, 60 min before test meal, rat, read-out: Gastric emptying enhancing activity, Increase (emptying rate vs control); for change in vivo at 0.5 mg/kg: 0.5 mg/kg p.o.; for change in vivo at 2 mg/kg: 2.0 mg/kg p.o.
Protocol: The test was carried out according to the method of Scarpignato et al. [cf. Arch. int. Pharmacodyn., 246, 286-294 (1980)].
Male Wistar rats, weighing 130-150 g, were fasted for 18 hours before experimentation, and 1.5 ml of a test meal (phenol red 0.05% in a 1.5% aqueous methylcellulose solution) was given by gastric tube. Fifteen minutes after administration of the meal the stomach was removed and the amount of phenol red remaining in the stomach was measured.
The test compounds, dissolved or suspended in a 0.5% tragacanth solution, were orally administered 60 minutes before administration of the test meal. The rate of gastric emptying was calculated according to the amount of phenol red remaining in the stomach, and the activity of the test compounds was expressed in terms of increase in the emptying rate from the control. The number of animals used was 5 for the control and each dose of metoclopramide hydrochloride monohydrate and 4 for each dose of the other test compounds.

central nervous system = experiment: Test 3: effect on the central nervous system (CNS effect), Irwin observation; settings: 100 mg/kg, p.o., mouse, 2 hours observation
Protocol: Male ddY mice, weighing 18-25 g, were used in groups of 3 animals each. […] Psychopharmacologia, 13, 222-227 (1968)], comprehensive observation of behavioral and physiologic states were carried out for 2 hours after the oral treatment with 100 mg/kg of the test compound, dissolved or suspended in a 0.5% tragacanth solution. Liability of the test compounds to the central nervous system effect was expressed with the following marks, according to the total sum of potencies for the individually analyzed effects, such as catalepsy, ptosis, hypolocomotin, etc.

CNS effect (central nervous system)	Structure (SMILES)	change in vivo at 0.5 mg/kg (gastric emptying) [%]	change in vivo at 2 mg/kg (gastric emptying) [%]	change in vivo at 0.2 mg/kg (gastric emptying; 0.2 mg/kg p.o.) [%]
-	CC(C)CCOc1cc(N)c(Cl)cc1C(=O)NCC1CN(Cc2ccccc2)CCO1 (stereo not drawn) [Example 93, 4-amino-N-[(4-benzyl-2-morpholinyl)methyl]-5-chloro-2-isopentyloxybenzamide]	46.9	44.2	
-	CC(C)CCOc1cc(N)c(Cl)cc1C(=O)NCC1CN(Cc2ccc(F)cc2)CCO1 (stereo not drawn) [Example 94]		52	
-	CC(C)CCOc1cc(N)c(Cl)cc1C(=O)NCC1CN(Cc2ccccc2Cl)CCO1 (stereo not drawn) [Example 95]		61.6	34.7
-	CCCCCCCOc1cc(N)c(Cl)cc1C(=O)NCC1CN(Cc2ccccc2)CCO1 (stereo not drawn) [Example 97]		43.8	
-	Nc1cc(OC2CCCC2)c(C(=O)NCC2CN(Cc3ccccc3)CCO2)cc1Cl (stereo not drawn) [Example 101]		46.4	
-	CC(=O)COc1cc(N)c(Cl)cc1C(=O)NCC1CN(Cc2ccccc2)CCO1 (stereo not drawn) [Example 104]		43.8	
-	CC(O)COc1cc(N)c(Cl)cc1C(=O)NCC1CN(Cc2ccccc2)CCO1 (stereo not drawn) [Example 105]		52	
-	CC(C)=CCOc1cc(N)c(Cl)cc1C(=O)NCC1CN(Cc2ccccc2)CCO1 (stereo not drawn) [Example 116, 4-amino-N-[(4-benzyl-2-morpholinyl)methyl]-5-chloro-2-(3-methyl-2-butenyloxy)benzamide]	41.4	52.4	
-	C=CCCOc1cc(N)c(Cl)cc1C(=O)NCC1CN(Cc2ccccc2)CCO1 (stereo not drawn) [Example 119]		48.4	
